Source: patent publication US11117894B2, “Pyridopyrazine compounds and uses thereof” (CITY OF HOPE, priority 2017, dated 2021)

Tests used:
DU145 prostate cancer = experiment: MTS cell viability assay, DU145 prostate cancer cell line; type: cell-based; details: 48 h; for Viability % CTL DU145 prostate: Table 1, screened at 10 μM; for Viability (% CTL) at 10 μM DU145 prostate: Table 2; for Viability % CTL DU145 prostate (10 μM ): Table 4; for IC50: Homo sapiens, DU-145, DU145 prostate cancer, MTS
Method: (§1) MTS assays were performed for cell viability. To determine if novel pyridopyrazine derivatives have antitumor activities, compounds were screened at 10 μM final concentration with A2058 melanoma and DU145 prostate cancer cell lines. Compounds #16 and #17 were selected to determine IC50 values against lung cancer cell lines, including A549, DMS273, H69, H513, H2461, DMS114, H358 and H2596. In this assay, cells (5000/well) were seeded in 96-well plates, incubated overnight at 37° C. in 5% CO2, and exposed to 10 μM of compounds or in a dose-dependent manner for 48 h. After 48 h treatment with compounds, MTS dye (20 μL/well) was added to 96-well plates. Viable cell numbers were determined by tetrazolium conversion to its formazan dye. Absorbance was measured at 490 nm using an automated ELISA plate reader. Dimethyl sulfoxide (DMSO) was used as the vehicle control. Each experiment was conducted in triplicate. IC50 values were determined using CalcuSyn software (Biosoft).

A2058 melanoma = experiment: MTS cell viability assay, A2058 melanoma cell line; type: cell-based; details: 48 h; for Viability % CTL A2058 melanoma: Table 1, screened at 10 μM; for Viability (% CTL) at 10 μM A2058 melanoma: Table 2, 10 μM; for Viability % CTL A2058 melanoma (10 μM): Table 4, 10 μM; for IC50: Homo sapiens, MTS
Method: as §1

| SMILES | Viability % CTL DU145 prostate (DU145 prostate cancer) [% CTL] | Viability % CTL A2058 melanoma (A2058 melanoma) [% CTL] | also measured |
| --- | --- | --- | --- |
| Cc1nc2nc(Sc3ccccc3)cnc2cc1NC(=O)Nc1cccc(C(F)(F)F)c1 [Compound 17B] | 101 | 56 |  |
| Cc1nc2nc(Oc3ccccc3)cnc2cc1NC(=O)Nc1ccccc1 [Compound 57C] | 126 | 94 |  |
| Cc1nc2nc(Nc3ccccc3)cnc2cc1NC(=O)CNc1ccccc1 [Compound 26E] |  |  | Viability (% CTL) at 10 μM DU145 prostate (DU145 prostate cancer): 85 % CTL; Viability (% CTL) at 10 μM A2058 melanoma (A2058 melanoma): 93 % CTL |
| COc1cc(C(=O)Nc2cc3nccnc3nc2C)cc(OC)c1OC [Compound 07A] | 122 | 82 |  |
| Cc1nc2nccnc2cc1NC(=O)CN1CCN(C)CC1 [Compound 13A] | 86 | 94 |  |
| Cc1nc2nccnc2cc1NC(=O)Nc1cccc(C(F)(F)F)c1 [Compound 17A] | 98 | 79 |  |
| Cc1nc2nc(Oc3ccccc3)cnc2cc1N [Compound 56D] | 108 | 81 |  |
| Cc1nc2nccnc2cc1NC(=O)c1cccc(C(F)(F)F)c1 [Compound 09A] | 103 | 74 |  |
| Cc1ccc(C(=O)Nc2cc3nccnc3nc2C)cc1 [Compound 08A] | 96 | 80 |  |
| Cc1nc2nccnc2cc1NC(=O)c1ccc(Br)cc1F [Compound 10A] | 95 | 93 |  |
| Cc1nc2nc(Nc3ccccc3)cnc2cc1NC(=O)c1ccccc1 [Compound 8, N-(6-Methyl-3-(phenylamino)pyrido[2,3-b]pyrazin-7-yl)benzamide] |  |  | Viability (% CTL) at 10 μM DU145 prostate (DU145 prostate cancer): 90 % CTL; Viability (% CTL) at 10 μM A2058 melanoma (A2058 melanoma): 81 % CTL |
| CC(=O)Nc1ccc(Nc2cnc3cc(NC(=O)Nc4cccc(C(F)(F)F)c4)c(C)nc3n2)cc1 [Compound 33, N-(4-((6-Methyl-7-(3-(3-(trifluoromethyl)phenyl)ureido)pyrido[2,3-b]pyrazin-3-yl)amino)phenyl)acetamide] |  |  | Viability % CTL DU145 prostate (10 μM ) (DU145 prostate cancer): 55 % CTL; Viability % CTL A2058 melanoma (10 μM) (A2058 melanoma): 109 % CTL |
| Cc1nc2nc(Nc3ccccc3)cnc2cc1NC(=O)CN(C)C [Compound 24E] |  |  | Viability (% CTL) at 10 μM DU145 prostate (DU145 prostate cancer): 102 % CTL; Viability (% CTL) at 10 μM A2058 melanoma (A2058 melanoma): 84 % CTL |
| Cc1nc2nc(Nc3ccccc3)cnc2cc1NC(=O)Nc1ccc(Cl)cc1Cl [Compound 19, 1-(2,4-Dichlorophenyl)-3-(6-methyl-3-(phenylamino)pyrido[2,3-b]pyrazin-7-yl)urea] |  |  | Viability % CTL DU145 prostate (10 μM ) (DU145 prostate cancer): 50 % CTL; Viability % CTL A2058 melanoma (10 μM) (A2058 melanoma): 60 % CTL |
| Cc1nc2nccnc2cc1NC(=O)c1ccccc1 [Compound 06A] | 94 | 85 |  |
| CSc1ccc(NC(=O)Nc2cc3ncc(Nc4ccccc4)nc3nc2C)cc1 [Compound 18, 1-(6-Methyl-3-(phenylamino)pyrido[2,3-b]pyrazin-7-yl)-3-(4-(methylthio)phenyl)urea] |  |  | IC50 (DU145 prostate cancer): 2.4 µM; Viability % CTL DU145 prostate (10 μM ) (DU145 prostate cancer): 6 % CTL; IC50 (A2058 melanoma): 1.3 µM; Viability % CTL A2058 melanoma (10 μM) (A2058 melanoma): 7 % CTL |
| Cc1nc2nc(Sc3ccccc3)cnc2cc1NC(=O)c1ccccc1C(F)(F)F [Compound 16B] | 120 | 84 |  |
| Cc1ccc(C(=O)Nc2cc3ncc(Nc4ccccc4)nc3nc2C)cc1 [Compound 9, 4-Methyl-N-(6-methyl-3-(phenylamino)pyrido[2,3-b]pyrazin-7-yl)benzamide] |  |  | Viability (% CTL) at 10 μM DU145 prostate (DU145 prostate cancer): 82 % CTL; Viability (% CTL) at 10 μM A2058 melanoma (A2058 melanoma): 66 % CTL |
| Cc1nc2nc(Nc3ccccc3)cnc2cc1NC(=O)CN1CCN(C)CC1 [Compound 25E] |  |  | Viability (% CTL) at 10 μM DU145 prostate (DU145 prostate cancer): 83 % CTL; Viability (% CTL) at 10 μM A2058 melanoma (A2058 melanoma): 85 % CTL |
| CCOC(=O)c1ccc(Nc2cnc3cc(NC(=O)Nc4ccc(F)c(Cl)c4)c(C)nc3n2)cc1 [Compound 28, Ethyl 4-((7-(3-(3-chloro-4-fluorophenyl)ureido)-6-methylpyrido[2,3-b]pyrazin-3-yl)amino)benzoate] |  |  | IC50 (DU145 prostate cancer): 9.9 µM; Viability % CTL DU145 prostate (10 μM ) (DU145 prostate cancer): 40 % CTL; IC50 (A2058 melanoma): 7.1 µM; Viability % CTL A2058 melanoma (10 μM) (A2058 melanoma): 35 % CTL |

| SMILES | Viability % CTL DU145 prostate (DU145 prostate cancer) [% CTL] | Viability % CTL A2058 melanoma (A2058 melanoma) [% CTL] | also measured |
| --- | --- | --- | --- |
| Cc1nc2nc(Nc3ccccc3)cnc2cc1NC(=O)c1ccc([N+](=O)[O-])cc1 [Compound 10, N-(6-Methyl-3-(phenylamino)pyrido[2,3-b]pyrazin-7-yl)-4-nitrobenzamide] |  |  | Viability (% CTL) at 10 μM DU145 prostate (DU145 prostate cancer): 97 % CTL; Viability (% CTL) at 10 μM A2058 melanoma (A2058 melanoma): 86 % CTL |
| Cc1nc2nc(Nc3ccc(C(=O)O)cc3)cnc2cc1NC(=O)Nc1cccc(C(F)(F)F)c1 [Compound 36, 4-((6-Methyl-7-(3-(3-(trifluoromethyl)phenyl)ureido)pyrido[2,3-b]pyrazin-3-yl)amino)benzoic acid] |  |  | Viability % CTL DU145 prostate (10 μM ) (DU145 prostate cancer): 77 % CTL; Viability % CTL A2058 melanoma (10 μM) (A2058 melanoma): 113 % CTL |
| Cc1nc2nccnc2cc1NC(=O)Nc1ccc(F)c(Cl)c1 [Compound 16A] | 99 | 96 |  |
| Cc1nc2nccnc2cc1NC(=O)c1ccc(N)cc1 [Compound 12A] | 99 | 84 |  |
| Cc1nc2nc(Sc3ccccc3)cnc2cc1NC(=O)Nc1ccc(F)c(Cl)c1 [Compound 18B] | 124 | 83 |  |
| COc1cc(Nc2cnc3cc(NC(=O)Nc4cccc(C(F)(F)F)c4)c(C)nc3n2)cc(OC)c1OC [Compound 34, 1-(6-Methyl-3-((3,4,5-trimethoxyphenyl)amino)pyrido[2,3-b]pyrazin-7-yl)-3-(3-(trifluoromethyl)phenyl)urea] |  |  | Viability % CTL DU145 prostate (10 μM ) (DU145 prostate cancer): 81 % CTL; Viability % CTL A2058 melanoma (10 μM) (A2058 melanoma): 116 % CTL |
| CC(=O)Nc1cccc(Nc2cnc3cc(NC(=O)Nc4cccc(C(F)(F)F)c4)c(C)nc3n2)c1 [Compound 31, N-(3-((6-Methyl-7-(3-(3-(trifluoromethyl)phenyl)ureido)pyrido[2,3-b]pyrazin-3-yl)amino)phenyl)acetamide] |  |  | Viability % CTL DU145 prostate (10 μM ) (DU145 prostate cancer): 62 % CTL; Viability % CTL A2058 melanoma (10 μM) (A2058 melanoma): 119 % CTL |
| Cc1nc2nc(Nc3ccccc3)cnc2cc1NC(=O)c1cccc(C(F)(F)F)c1 [Compound 12, N-(6-Methyl-3-(phenylamino)pyrido[2,3-b]pyrazin-7-yl)-3-(trifluoromethyl)benzamide] | 93 | 69 |  |
| Cc1nc2nc(Nc3ccccc3)cnc2cc1NC(=O)c1ccc(NC(=O)Nc2ccccc2)cc1 [Compound 14, N-(6-Methyl-3-(phenylamino)pyrido[2,3-b]pyrazin-7-yl)-4-(3-phenylureido)benzamide] |  |  | Viability (% CTL) at 10 μM DU145 prostate (DU145 prostate cancer): 80 % CTL; Viability (% CTL) at 10 μM A2058 melanoma (A2058 melanoma): 75 % CTL |
| CC(=O)Nc1cccc(Nc2cnc3cc(NC(=O)Nc4ccc(F)c(Cl)c4)c(C)nc3n2)c1 [Compound 30, N-(3-((7-(3-(3-Chloro-4-fluorophenyl)ureido)-6-methylpyrido[2,3-b]pyrazin-3-yl)amino)phenyl)acetamide] |  |  | Viability % CTL DU145 prostate (10 μM ) (DU145 prostate cancer): 64 % CTL; Viability % CTL A2058 melanoma (10 μM) (A2058 melanoma): 118 % CTL |
| CCOC(=O)c1ccc(Nc2cnc3cc(NC(=O)Nc4cccc(C(F)(F)F)c4)c(C)nc3n2)cc1 [Compound 29, Ethyl 4-((6-methyl-7-(3-(3-(trifluoromethyl)phenyl)ureido)pyrido[2,3-b]pyrazin-3-yl)amino)benzoate] |  |  | IC50 (DU145 prostate cancer): 12.8 µM; Viability % CTL DU145 prostate (10 μM ) (DU145 prostate cancer): 48 % CTL; IC50 (A2058 melanoma): 6.1 µM; Viability % CTL A2058 melanoma (10 μM) (A2058 melanoma): 37 % CTL |
| COc1cc(C(=O)Nc2cc3ncc(Nc4ccccc4)nc3nc2C)cc(OC)c1OC [Compound 11, 3,4,5-Trimethoxy-N-(6-methyl-3-(phenylamino)pyrido[2,3-b]pyrazin-7-yl)benzamide] |  |  | Viability (% CTL) at 10 μM DU145 prostate (DU145 prostate cancer): 105 % CTL; Viability (% CTL) at 10 μM A2058 melanoma (A2058 melanoma): 83 % CTL |
| Cc1nc2nccnc2cc1NC(=O)CN(C)C [Compound 14A] | 101 | 106 |  |
| Cc1nc2nc(Sc3ccccc3)cnc2cc1NC(=O)Nc1ccc(F)c([N+](=O)[O-])c1 [Compound 20B] | 89 | 84 |  |
| Cc1nc2nccnc2cc1NC(=O)c1ccc([N+](=O)[O-])cc1 [Compound 11A] | 106 | 87 |  |
| Cc1nc2nccnc2cc1NC(=S)NCc1ccccc1 [Compound 18A] | 89 | 74 |  |
| CC(=O)Nc1ccc(Nc2cnc3cc(NC(=O)Nc4ccc(F)c(Cl)c4)c(C)nc3n2)cc1 [Compound 32, N-(4-((7-(3-(3-Chloro-4-fluorophenyl)ureido)-6-methylpyrido[2,3-b]pyrazin-3-yl)amino)phenyl)acetamide] |  |  | Viability % CTL DU145 prostate (10 μM ) (DU145 prostate cancer): 76 % CTL; Viability % CTL A2058 melanoma (10 μM) (A2058 melanoma): 65 % CTL |
| Cc1nc2nccnc2cc1NC(=O)Nc1ccccc1 [Compound 15A] | 104 | 73 |  |
| Cc1ccc(S(=O)(=O)Nc2cc3nccnc3nc2C)cc1 [Compound 19A] | 122 | 59 |  |
